{
  "source": "paper PMC13372681",
  "about": "“A natural depsipeptide antibiotic binds the E-site of the bacterial ribosome” (Nature, 2026)",
  "key": {"[1]": {"system": "Clostridium perfringens GC1584", "conditions": "gut isolate; BHI + L-cysteine, haemin, vitamin K, anaerobic, 37 °C"}, "[2]": {"system": "Candida albicans ATCC 90028"}, "[3]": {"system": "Bacillus subtilis 168"}, "[4]": {"assay": "Acute tolerability in mice", "type": "in vivo", "conditions": "doses up to 220 mg kg^−1 per day (divided into four doses over 20 hours, subcutaneous)"}, "[5]": {"system": "M. bovis BCG Pasteur ATCC 35734", "conditions": "Middlebrook 7H9 + 10% OADC + 0.05% Tween-80"}, "[6]": {"system": "M. tuberculosis H37Ra", "conditions": "Middlebrook 7H9 + 10% OADC + 0.05% Tween-80"}, "[7]": {"system": "Bacteroides fragilis GC73", "assay": "MIC, anaerobic gut bacteria", "type": "cell-based", "conditions": "gut isolate, BHI + L-cysteine, haemin, vitamin K, 37 °C"}, "[8]": {"system": "Red blood cells (RBCs)", "assay": "Haemolysis assay", "type": "cell-based", "conditions": "human RBCs 1:50 in PBS pH 7.4, 37 °C, 1 h, absorbance 540 nm", "experimental": "Human blood was obtained from BioIVT (USA). Red blood cells (RBCs) were separated from blood by centrifugation at 500g for 5 min. Plasma was removed and the RBCs were washed twice with 150 mM NaCl, using a volume equivalent to the removed plasma. After washing, phosphate-buffered saline (PBS) with a pH of 7.4, in a volume equal to the removed plasma, was added to create the RBC suspension. Using a Labcyte Echo acoustic dispenser (Beckman Coulter), 1 µl of the compound was added to the wells of a 96-well V-bottom plate. The final concentration of DMSO was kept at 1% (v/v), with a DMSO-only negative control included in each replicate. For the positive control, 10 µl of Triton X-100 was added, starting at a concentration of 20% and serially diluted twofold to 0.02%. RBCs were diluted 1:50 in PBS (pH 7.4), and 99 µl of this diluted solution was added to each well. The plates were incubated at 37 °C for 1 h, then centrifuged at 500g for 5 min to pellet the intact RBCs. Sixty-five microlitres of the supernatant was transferred to a clear, flat-bottom 96-well plate, and the absorbance was measured at 540 nm."}, "[9]": {"system": "E. coli ΔtolC ΔbamB", "conditions": "broth microdilution"}, "[10]": {"system": "M. avium subsp. avium ATCC 25291", "conditions": "Middlebrook 7H9 + 10% OADC + 0.05% Tween-80"}, "[11]": {"system": "A. baumanii ATCC 17978"}, "[12]": {"system": "E. coli BW25113"}, "[13]": {"conditions": "human plasma 1:1 with PBS pH 7.4, 10 µM, 37 °C, 0–120 min, LC–MS, % remaining; duplicate, two biological replicates"}, "[14]": {"system": "E. coli C1508", "conditions": "broth microdilution, MDR clinical isolate"}, "[15]": {"system": "E. coli C0617"}, "[16]": {"system": "K. pneumoniae C1459"}, "[17]": {"system": "Lactobacillus plantarum GC4", "assay": "MIC, anaerobic gut bacteria", "type": "cell-based", "conditions": "gut isolate, BHI + L-cysteine, haemin, vitamin K, 37 °C"}, "[18]": {"system": "S. aureus ATCC 29213"}, "[19]": {"system": "HEK293 cells", "assay": "Mammalian cytotoxicity, Cell Titer Glo", "type": "cell-based, human", "conditions": "48 h exposure, DMEM + 10% FBS, 1% DMSO, Cell Titer Glo 2.0 luminescence", "experimental": "(§1) Mammalian culture was performed in Dulbecco Modified Eagle Medium (DMEM) supplemented with 10% fetal bovine serum (FBS), 2 mM L-glutamine, 100 units ml^−1 penicillin and 100 µg ml^−1 streptomycin. HEK293 cells (ATCC CRL-1573; generation 6) were seeded at 7,500 cells per well and HepG2 cells (ATCC HB8065; generation 18) were seeded at 4,000 cells per well in 384-well tissue culture-treated white plates in 50 µl DMEM and incubated for 18 h at 37 °C in the presence of 5% CO2. After 18 h of incubation, 500 nl of the compound and DMSO (1% final concentration) were added to the cells using a Labcyte Echo acoustic dispenser (Beckman Coulter). Cells were further incubated for 48 h and after that cell viability was assessed using Promega Cell Titer Glo 2.0 reagent (Fisher Scientific). Before incubating the plates at room temperature for 10 min, 50 µl of Cell Titer Glo was added directly to the medium. The plates were then shaken for 2 min. The Neo2 plate reader (Biotek) was used to read the luminescence through luminescent fibre. Cells that were either not treated or solely treated with DMSO were used as a control."}, "[20]": {"system": "HepG2 cells", "assay": "Mammalian cytotoxicity, Cell Titer Glo", "type": "cell-based, human", "conditions": "48 h exposure, DMEM + 10% FBS, 1% DMSO, Cell Titer Glo 2.0 luminescence", "experimental": "as §1"}, "[21]": {"assay": "in vivo", "conditions": "female, ICR CD-1, mouse, plasma, sc; for level at 8 h / level at 24 h: below limit of quantification"}, "[22]": {"conditions": "mouse plasma 1:1 with PBS pH 7.4, 10 µM, 37 °C, 0–120 min, LC–MS, % remaining; duplicate, two biological replicates"}, "[23]": {"system": "S. enterica ATCC 14028", "conditions": "broth microdilution, Ca+ MHB Medium"}, "[24]": {"conditions": "broth microdilution, Ca+ MHB Medium, MDR clinical isolate"}, "[25]": {"conditions": "50 mg/kg, Plasma concentration MKM, s.c. 50 mg/kg, Mouse 2"}, "[26]": {"conditions": "50 mg/kg, Plasma concentration MKM, s.c. 50 mg/kg, Mouse 3"}, "[27]": {"conditions": "50 mg/kg, Plasma concentration MKM, s.c. 50 mg/kg, Mouse 1"}},
  "note": "Like-named read-outs stand apart in the source and are kept apart here. Where a SMILES comes first, the peptide text is derived from it. Bridges are numbered along the chain shown (N, C = ends). [ ]: non-standard residue; d: D form. dOrn = NCCC[C@@H](N)C(=O)O",
  "data": [
    {"smiles": "C[C@@H](O)[C@@H]1NC(=O)[C@@H](CCCNC(=N)N)NC(=O)[C@@H](CCCNC(=N)N)NC(=O)[C@@H](CC(N)=O)NC(=O)[C@@H](NC(=O)[C@@H](Cc2ccccc2)NC(=O)[C@@H](CCCN)NC(=O)[C@H](N)CCCNC(=N)N)[C@@H](C)OC(=O)[C@H](Cc2c[nH]cn2)NC1=O", "note": "[MKM-A, manikomycin] (H-[dR][dOrn][dF]T[dN][dR][dR]TH; ester 4-C)", "values": [
      {"measurement": "MIC", "setting": "[1]", "result": ">256", "unit": "µg/mL"},
      {"measurement": "MIC", "setting": "[2]", "result": ">64", "unit": "µg/mL"},
      {"measurement": "MIC", "setting": "[3]", "result": ">64", "unit": "µg/mL"},
      {"measurement": "acute tolerability", "setting": "[4]", "result": "acceptable acute tolerability"},
      {"measurement": "MIC", "setting": "[5]", "result": 2, "unit": "µg/mL"},
      {"measurement": "MIC", "setting": "[6]", "result": 4, "unit": "µg/mL"},
      {"measurement": "MIC", "setting": "[7]", "result": ">256", "unit": "µg/mL"},
      {"measurement": "Haemolysis (256 μg/ml)", "setting": "[8]", "result": "<1", "unit": "%"},
      {"measurement": "MIC", "setting": "[9]; Ca+ MHB Medium", "result": 8, "unit": "µg/mL"},
      {"measurement": "MIC", "setting": "[9]; MOPS Minimal Medium", "result": 2, "unit": "µg/mL"},
      {"measurement": "MIC", "setting": "[9]; RPMI Medium", "result": 2, "unit": "µg/mL"},
      {"measurement": "MIC", "setting": "[10]", "result": 32, "unit": "µg/mL"},
      {"measurement": "MIC", "setting": "[11]; ATCC 17978", "result": 64, "unit": "µg/mL"},
      {"measurement": "MIC", "setting": "[11]; broth microdilution, Ca+ MHB Medium", "result": ">128", "unit": "µg/mL"},
      {"measurement": "MIC", "setting": "[12]; BW25113", "result": 4, "unit": "µg/mL"},
      {"measurement": "MIC", "setting": "[12]; broth microdilution, Ca+ MHB Medium (cation-adjusted MHB)", "result": 32, "unit": "µg/mL"},
      {"measurement": "stability in plasma", "setting": "[13]", "result": "excellent stability"},
      {"measurement": "MIC", "setting": "[14]; Ca+ MHB Medium", "result": 32, "unit": "µg/mL"},
      {"measurement": "MIC", "setting": "[14]; MOPS Minimal Medium", "result": 16, "unit": "µg/mL"},
      {"measurement": "MIC", "setting": "[14]; RPMI Medium", "result": 4, "unit": "µg/mL"},
      {"measurement": "MIC", "setting": "[15]; C0617", "result": 8, "unit": "µg/mL"},
      {"measurement": "MIC", "setting": "[15]; [24]", "result": 32, "unit": "µg/mL"},
      {"measurement": "MIC", "setting": "[16]; C1459", "result": 8, "unit": "µg/mL"},
      {"measurement": "MIC", "setting": "[16]; [24]", "result": 32, "unit": "µg/mL"},
      {"measurement": "MIC", "setting": "[17]", "result": ">256", "unit": "µg/mL"},
      {"measurement": "MIC", "setting": "[18]", "result": 64, "unit": "µg/mL"},
      {"measurement": "HEK 293 (IC50)", "setting": "[19]", "result": ">256", "unit": "µg/mL"},
      {"measurement": "HepG2 (IC50)", "setting": "[20]", "result": ">256", "unit": "µg/mL"},
      {"measurement": "Cmax", "setting": "[21]; 50 mg kg^−1", "result": 9130, "unit": "ng/mL"},
      {"measurement": "half-life", "setting": "[21]; 50 mg kg^−1", "result": "~36", "unit": "min"},
      {"measurement": "level at 0.25 h", "setting": "[21]; 50 mg/kg, Plasma concentration MKM, s.c. 50 mg/kg, Mouse 1, linear range 1.6–50 µg/ml", "result": 6650, "unit": "ng/mL"},
      {"measurement": "level at 0.25 h", "setting": "[21]; [25]", "result": 8580, "unit": "ng/mL"},
      {"measurement": "level at 0.25 h", "setting": "[21]; [26]", "result": 9540, "unit": "ng/mL"},
      {"measurement": "level at 0.5 h", "setting": "[21]; 50 mg/kg, Plasma concentration MKM, s.c. 50 mg/kg, Time 0.5 (h), Mouse 3", "result": 9170, "unit": "ng/mL"},
      {"measurement": "level at 1 h", "setting": "[21]; [27]", "result": 6890, "unit": "ng/mL"},
      {"measurement": "level at 1 h", "setting": "[21]; [25]", "result": 9080, "unit": "ng/mL"},
      {"measurement": "level at 1 h", "setting": "[21]; [26]", "result": 6930, "unit": "ng/mL"},
      {"measurement": "level at 2 h", "setting": "[21]; [27]", "result": 1470, "unit": "ng/mL"},
      {"measurement": "level at 2 h", "setting": "[21]; [25]", "result": 1060, "unit": "ng/mL"},
      {"measurement": "level at 2 h", "setting": "[21]; [26]", "result": 2600, "unit": "ng/mL"},
      {"measurement": "level at 8 h", "setting": "[21]; [27]", "result": 386, "unit": "ng/mL"},
      {"measurement": "level at 8 h", "setting": "[21]; [25]", "result": 55.8, "unit": "ng/mL"},
      {"measurement": "level at 8 h", "setting": "[21]; [26]", "result": 108, "unit": "ng/mL"},
      {"measurement": "level at 24 h", "setting": "[21]; [27]", "result": 71.5, "unit": "ng/mL"},
      {"measurement": "level at 24 h", "setting": "[21]; [25]", "result": 27.3, "unit": "ng/mL"},
      {"measurement": "level at 24 h", "setting": "[21]; [26]", "result": 68, "unit": "ng/mL"},
      {"measurement": "stability in plasma", "setting": "[22]", "result": "excellent stability"},
      {"measurement": "MIC", "setting": "[23]", "result": 32, "unit": "µg/mL"}
    ]}
  ]
}
